molecular target: T1, c-Raf kinase (Lck-activated c-Raf, Raf-1) (Homo sapiens, UniProt P04049); assay: c-Raf (Raf-1) biochemical assay (radioactive filtermat assay, MEK-1 substrate); settings: at 1 micromolar compound; 5 μM ATP, 32° C., 1 hour
T1 construct: GST-c-Raf (from amino acid 302 to amino acid 648); made in house; host or cells: Sf9 insect cells (baculovirus; co-infection with full-length Lck)
Method: Biological Tests c-Raf (Raf-1) Biochemical Assay Purification of Proteins Used in the Assay
The c-Raf biochemical assay was performed with a c-Raf enzyme that was activated (phosphorylated) by Lck kinase. Lck-activated c-Raf (Lck/c-Raf) was produced in Sf9 insect cells by co-infecting cells with baculoviruses expressing, under the control of the polyhedrin promoter, GST-c-Raf (from amino acid 302 to amino acid 648) and Lck (full-length). Both baculoviruses were used at the multiplicity of infection of 2.5 and the cells were harvested 48 hours post infection.
MEK-1 protein was produced in Sf9 insect cells by infecting cells with the baculovirus expressing GST-MEK-1 (full-length) fusion protein at the multiplicity of infection of 5 and harvesting the cells 48 hours post infection. Similar purification procedure was used for GST-c-Raf 302-648 and GST-MEK-1.
Transfected cells were suspended at 100 mg of wet cell biomass per mL in a buffer containing 10 mM sodium phosphate, 140 mM sodium chloride pH 7.3, 0.5% Triton X-100 and the protease inhibitor cocktail. The cells were disrupted with Polytron homogenizer and centrifuged 30,000 g for 30 minutes. The 30,000 g supernatant was applied onto GSH-Sepharose. The resin was washed with a buffer containing 50 mM Tris, pH 8.0, 150 mM NaCl and 0.01% Triton X-100. The GST-tagged proteins were eluted with a solution containing 100 mM Glutathione, 50 mM Tris, pH 8.0, 150 mM NaCl and 0.01% Triton X-100. The purified proteins were dialyzed into a buffer containing 20 mM Tris, pH 7.5, 150 mM NaCl and 20% Glycerol.
Biochemical Assay Protocol and Results
The compounds were serially diluted in DMSO using three-fold dilutions to stock concentrations ranging typically from 50 μM to 20 nM (final concentrations in the assay range from 1 μM to 0.4 nM). The c-Raf biochemical assay was performed as a radioactive filtermat assay in 96-well Costar polypropylene plates (Costar 3365). The plates were loaded with 75 μL solution containing 50 mM HEPES pH 7.5, 70 mM NaCl, 80 ng of Lck/c-Raf and 1 μg MEK-1. Subsequently, 2 μL of the serially diluted individual compounds were added to the reaction, prior to the addition of ATP. The reaction was initiated with 25 μL ATP solution containing 5 μM ATP and 0.3 μCi [33P]-ATP. The plates were sealed and incubated at 32° C. for 1 hour. The reaction was quenched with the addition of 50 μl of 4% Phosphoric Acid and harvested onto P30 filtermats (PerkinElmer) using a Wallac Tomtec Harvester. Filtermats were washed with 1% Phosphoric Acid first and deinonized H2O second. The filters were dried in a microwave, soaked in scintillation fluid and read in a Wallac 1205 Betaplate Counter (Wallac Inc., Atlanta, Ga., U.S.A.). The results were expressed as percent inhibition. % Inhibition=[[…]]×100 where • Tib=(counts per minute with inhibitor)−(background) • Ti=(counts per minute without inhibitor)−(background)

T1 sequence (P04049 302-648): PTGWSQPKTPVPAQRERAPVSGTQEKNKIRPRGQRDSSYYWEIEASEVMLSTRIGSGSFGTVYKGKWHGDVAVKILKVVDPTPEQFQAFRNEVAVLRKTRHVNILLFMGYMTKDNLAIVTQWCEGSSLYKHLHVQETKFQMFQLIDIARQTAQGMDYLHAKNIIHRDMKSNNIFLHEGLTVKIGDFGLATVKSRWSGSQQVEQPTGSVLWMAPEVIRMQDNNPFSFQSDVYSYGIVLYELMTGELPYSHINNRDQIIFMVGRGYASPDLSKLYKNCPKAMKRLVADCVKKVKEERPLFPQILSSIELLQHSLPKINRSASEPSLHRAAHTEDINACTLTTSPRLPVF

Inhibition at 1 µM, > 40%:
CNC(=O)c1cc(Oc2ccc(NC(=O)Nc3nc4ccc(F)cc4s3)cc2)ccn1 [Example 13]
O=C(Nc1ccc(Oc2ccnc(C(=O)NCCCn3ccnc3)c2)cc1)Nc1ccc2c(c1)OCCO2 [Example 158]
CNC(=O)c1cc(Oc2cccc(NC(=O)Nc3ccc4c(c3)C(F)(F)OC(F)(F)O4)c2)ccn1 [Example 117]
CNC(=O)c1cc(COc2cccc(NC(=O)Nc3ccc4c(cnn4C)c3)c2)ccn1 [Example 89]
CNC(=O)c1cc(Oc2ccc(NC(=O)Nc3nc4ccc(OC(F)(F)F)cc4s3)cc2)ccn1 [Example 12]
CNC(=O)c1cc(Oc2ccc(NC(=O)Nc3ccc4c(c3)OC(F)(F)C(F)(F)O4)c(C(F)(F)F)c2)ccn1 [Example 64]
CCN(CC)CCn1ccc2cc(NC(=O)Nc3ccc(Oc4ccnc(C(=O)NC)c4)cc3F)ccc21 [Example 44]
CNC(=O)c1cc(Oc2cccc(NC(=O)Nc3ccc4[nH]nnc4c3)c2)ccn1 [Example 37]
CNC(=O)c1cc(Oc2ccc(NC(=O)Nc3cccc4c3OC(F)(F)C(F)(F)O4)cc2)ccn1 [Example 132]
CNC(=O)c1cc(Oc2ccc(NC(=O)Nc3ccc4nccnc4c3)cc2)ccn1 [Example 17]
CCN(CC)CCn1ncc2cc(NC(=O)Nc3ccc(Oc4ccnc(C(=O)NC)c4)cc3F)ccc21 [Example 45]
CC(=O)c1cc(Oc2ccc(NC(=O)Nc3ccc4c(cnn4C)c3)cc2)ccn1 [Example 3, N-{4-[(2-acetylpyridin-4-yl)oxy]phenyl}-N′-(1-methyl-1H-indazol-5-yl)urea]
Cn1ncc2cc(NC(=O)Nc3ccc(Oc4ccnc(C(=O)NC5CC5)c4)cc3)ccc21 [Example 147, N-cyclopropyl-4-[4-({[(1-methyl-1H-indazol-5-yl)amino]-carbonyl}amino)phenoxy]pyridine-2-carboxamide]
O=C(Nc1ccc(Oc2ccnc(C(=O)NCCCn3ccnc3)c2)cc1)Nc1ccc2c(c1)C(F)(F)OC(F)(F)O2 [Example 145, N-[3-(1H-imidazol-1-yl)propyl]-4-[4-({[(2,2,4,4-tetrafluoro-4H-1,3-benzodioxin-6-yl)amino]carbonyl}amino)phenoxy]pyridine-2-carboxamide]
CN(C)C(=O)CNC(=O)c1cc(Oc2ccc(NC(=O)Nc3ccc4c(cnn4C)c3)cc2)ccn1 [Example 100]
CNC(=O)c1cc(Oc2ccc(NC(=O)Nc3ccc4nc(C)oc4c3)cc2)ccn1 [Example 6]
COC(=O)c1cc(Oc2cccc(NC(=O)Nc3ccc4c(c3)C(F)(F)OC(F)(F)O4)c2)ccn1 [Example 105, Methyl 4-[3-({[(2,2,4,4-tetrafluoro-4H-1,3-benzodioxin-6-yl)amino]-carbonyl}amino)phenoxy]pyridine-2-carboxylate]
COC(=O)c1cc(Oc2cccc(NC(=O)Nc3ccc4c(cnn4C)c3)c2)ccn1 [Example 2, Methyl 4-[3-({[(1-methyl-1H-indazol-5-yl)amino]carbonyl}amino)phenoxy]-pyridine-2-carboxylate]
Cn1ncc2cc(NC(=O)Nc3ccc(Oc4ccnc(C(=O)NC5CCC5)c4)cc3)ccc21 [Example 163]
CNC(=O)c1cc(Oc2ccc(NC(=O)Nc3ccc4[nH]c(C(F)(F)F)nc4c3)cc2)ccn1 [Example 28]
COC(=O)c1cncc(Oc2ccc(NC(=O)Nc3ccc4c(c3)C(F)(F)OC(F)(F)O4)cc2)c1 [Example 122]
O=C(Nc1ccc(Oc2ccnc(C(=O)NCCN3CCCCC3)c2)cc1)Nc1ccc2c(c1)C(F)(F)OC(F)(F)O2 [Example 153]
O=C(Nc1ccc(Oc2ccnc(C(=O)NCCN3CCCC3)c2)cc1)Nc1ccc2c(c1)OCCO2 [Example 159]
CNC(=O)c1cc(Oc2ccc(NC(=O)Nc3ccc4cn[nH]c4c3)cc2)ccn1 [Example 27]
O=C(Nc1cccc(Oc2ccnc(C(=O)NCCN3CCCC3)c2)c1)Nc1ccc2c(c1)C(F)(F)OC(F)(F)O2 [Example 168]
CNC(=O)c1cc(Oc2ccc(NC(=O)Nc3ccc4nn(C)cc4c3)cc2)ccn1 [Example 9]
Cn1ncc2cc(NC(=O)Nc3ccc(Oc4ccnc(C(=O)NCC5CC5)c4)cc3)ccc21 [Example 162]
CNC(=O)c1cc(Oc2ccc(NC(=O)Nc3nc4ccc(OC)cc4s3)cc2)ccn1 [Example 14]
Cn1ncc2cc(NC(=O)Nc3ccc(Oc4ccnc(C(=O)NCCCn5ccnc5)c4)cc3)ccc21 [Example 160]
O=C(Nc1ccc(Oc2ccnc(C(=O)Nc3ccccn3)c2)cc1)Nc1ccc2c(c1)C(F)(F)OC(F)(F)O2 [Example 155]
CNC(=O)c1cc(Oc2ccc(NC(=O)Nc3ccc4sc(C)nc4c3)c(C(F)(F)F)c2)ccn1 [Example 65]
CNC(=O)c1cc(Oc2ccc(NC(=O)Nc3ccc4[nH]nnc4c3)cc2)ccn1 [Example 26]
Cn1ncc2cc(NC(=O)Nc3ccc(Oc4ccnc(C(=O)NCCN5CCCCC5)c4)cc3)ccc21 [Example 161]
NC(=O)c1cc(Oc2ccc(NC(=O)Nc3ccc4c(c3)CCC4)c(Cl)c2)ccn1 [Example 95]
CNC(=O)c1cc(Oc2ccc(NC(=O)Nc3ccc4c(c3)OCO4)cc2)ccn1 [Example 135]
CNC(=O)c1cc(Oc2ccc(NC(=O)Nc3ccc4c(c3)N(C(C)=O)CC4)cc2)ccn1 [Example 10]
COCCNC(=O)c1cc(Oc2ccc(NC(=O)Nc3ccc4c(cnn4C)c3)c(F)c2)ccn1 [Example 99]
O=C(Nc1ccc(Oc2ccnc(C(=O)NCCN3CCCC3)c2)cc1)Nc1ccc2c(c1)C(F)(F)OC(F)(F)O2 [Example 146, N-(2-pyrrolidin-1-ylethyl)4-[4-({[(2,2,4,4-tetrafluoro-4H-1,3-benzodioxin-6-yl)-amino]carbonyl}amino)phenoxy]pyridine-2-carboxamide]
CNC(=O)c1cc(Oc2ccc(NC(=O)Nc3nc4c(F)cc(F)cc4s3)cc2)ccn1 [Example 103]
CNC(=O)c1cc(Oc2ccc(NC(=O)Nc3ccc4c(c3)CCC4=O)cc2)ccn1 [Example 22]
CNC(=O)c1cc(Oc2ccc(NC(=O)Nc3ccc4[nH]c(C)cc4c3)cc2)ccn1 [Example 16]
CNC(=O)c1cc(Oc2ccc(NC(=O)Nc3nc4ccc([N+](=O)[O-])cc4s3)cc2)ccn1 [Example 102]

Reference: patent US8076488B2, “Bicyclic urea derivatives useful in the treatment of cancer and other disorders” (Bayer Healthcare LLC, priority 2003, dated 2011)
